Experimental data: patent publication US20150031068A1, “METHODS AND COMPOSITIONS FOR DETECTING IMMUNE SYSTEM ACTIVATION” (Lycera Corporation, priority 2012, published 2015)

Experiments:
T cells [1] = test: ^13C delta in CO2 in spleen T cells after ^13C-palmitate tracer load, acute graft-versus-host disease model; assay type: in vivo, mouse
Experimental: To investigate metabolic adaptations that occur in response to allo-activation, host strain animals (female B6D2F1 mice, H-2b/d) were injected with 50-75 million spleen cells from donor strain animals (female B6.SJL mice, H-2b). The miss-match between the strains major histocompatibility antigens (e.g., H-2b/d versus H-2b) causes T cell activation of donor T cells in vivo and results in a mouse model of acute graft versus host disease. Eight days after injection, transplanted mice along with control non-transplanted animals from the host and donor strains received with U-^13C(6)-glutamine (Sigma#60516, 1.0 g/kg I.P.) or U-^13C(5)-glucose (Sigma#660663, 1.0 g/kg I.P.) or potassium U-^13C(16)-palmitate (Sigma#687871, 1.0 g/kg, gastric gavage). Treatment groups of four mice each were euthanized 60 minutes after the glutamine or glucose tracer loads or 180 minutes after palmitate tracer load by over exposure to carbon dioxide. Terminal blood samples were collected by cardiac puncture, plasma prepared after blood was mixed with heparin and frozen at −80° C. Spleens were removed and processed to isolate T cells as separate fractions derived from either the donor or host strains of mice. Samples were stored on dry ice overnight and then stored at −80° C. until analyzed using GC/MS-based mass isotopomer analysis.

T cells [2] = test: Molar percent enrichment of [4,5-^13C2]-L-glutamate in spleen T cells after ^13C-palmitate tracer load; assay type: in vivo, mouse
Source text: The molar percent enrichment of [4,5-^13C2]-L-glutamate is the amount of [4,5-^13C2]-L-glutamate in a sample divided by the total amount of all ^13C-labeled glutamate isotopomers in the sample.

[3] = Plasma metabolite profile after ^13C-glutamine tracer load in mouse model of acute graft-versus-host disease; assay type: in vivo; details: for circulating total glutamine concentration in plasma, change: grafted host (allo-transplanted) mice compared to control donor and control host mice
Experimental: To investigate metabolic adaptations that occur in response to allo-activation, host strain animals (female B6D2F1 mice, H-2b/d) were injected with 50-75 million spleen cells from donor strain animals (female B6.SJL mice, H-2b). […] Eight days after injection, transplanted mice along with control non-transplanted animals from the host and donor strains received with U-^13C(6)-glutamine (Sigma#60516, 1.0 g/kg I.P.) or U-^13C(5)-glucose (Sigma#660663, 1.0 g/kg I.P.) or potassium U-^13C(16)-palmitate (Sigma#687871, 1.0 g/kg, gastric gavage). Treatment groups of four mice each were euthanized 60 minutes after the glutamine or glucose tracer loads or 180 minutes after palmitate tracer load by over exposure to carbon dioxide. Terminal blood samples were collected by cardiac puncture, plasma prepared after blood was mixed with heparin and frozen at −80° C. Spleens were removed and processed to isolate T cells as separate fractions derived from either the donor or host strains of mice. Samples were stored on dry ice overnight and then stored at −80° C. until analyzed using GC/MS-based mass isotopomer analysis.

^13C delta in CO2 (T cells [1]; allo-activated donor type T cells versus control naive donor type T cells, FIG. 4B)	^13C delta in CO2 (T cells [1]; host T cells from allo-transplanted mouse versus host-type T cells from healthy host control, FIG. 5B)	molar percent enrichment of [4,5-^13C2]-L-glutamate (T cells [2]; allo-activated donor T cells versus control naive T cells, FIG. 6)	molar percent enrichment of [4,5-^13C2]-L-glutamate (T cells [2]; host T cells from allo-transplanted mouse versus T cells from healthy host control, FIG. 7)	circulating total glutamine concentration in plasma, change [3]	circulating total glutamine concentration in plasma, change ([3]; listed as glutamine)	share of ^13C-labeled glutamine fraction still uniformly ^13C-labeled ([3]; grafted host animals, plasma, one hour after glutamine tracer load)	SMILES
higher	no statistically significant difference	over six times greater	no statistically significant difference				[13CH3][13CH2][13CH2][13CH2][13CH2][13CH2][13CH2][13CH2][13CH2][13CH2][13CH2][13CH2][13CH2][13CH2][13CH2][13C](=O)[O-].[K+] [uniformly labeled ^13C-palmitate, potassium U-^13C(16)-palmitate]
				more than two-fold drop	reduction	83.4%	NC(=O)CCC(N)C(=O)O [[U-^13C5]-L-glutamine]
